1 molecule from US9855273B2, “Combination therapy for MDS” (priority 2013, dated 2018) can be followed below.

For series [1], the system named is MDS/AML cell lines (MDSL, TF1, THP1, HL60). The experiment in a line: Viable cell growth (trypan blue exclusion) of MDS/AML cell lines. It counts as cell-based, human. As to conditions: IRAK-Inh 10 μM, ABT-263 0.1 μM. The protocol: Acute myeloid leukemic cell lines, HL60, THP1, and TF-1 were purchased from the American Type Culture Collection. MOLM13 were purchased from AddexBio. The myelodysplastic cell line, MDS-L, was provided by Dr. Kaoru Tohyama (Kawasaki Medical School, Okayama, Japan) (Matsuoka et al., 2010). […] Additionally, both the MDSL and TF-1 cell lines were cultured in the presence of 10 ng/mL human recombinant IL-3 (Stemcell Technologies).

Another series relates to MDSL cells. Kind of series: MDSL xenograft, cells pre-treated in vitro, NSGS mice. As to conditions: MDSL treated in vitro with IRAK-Inh 10 μM and/or ABT-263 0.1 μM; DMSO 28 days. It counts as in vivo. The procedure: Xenograftment of NOD/SCID-IL2Rγ(NSG) and NSG-hSCF/hGM-CSF/hIL3 (NSGS) MDSL cells (1×10^6-5×10^6) were injected into the tail veins of 8-week old sublethally irradiated ([…]) NSG or NSG animals engineered to express human SCF, GM-CSF, and IL3 (NSGS) as previously described (Wunderlich et al., 2010). Mice were monitored by performing complete blood counts (Drew Hemavet 950FS). Following red cell lysis, human MDSL cells were identified by hCD45-FITC staining. In vivo delivery of IRAK-Inh approach is adapted from previous reports (Yang et al., 2011): IRAK-Inh was diluted in DMSO (5 mM) and further dissolved in sterile phosphate buffered saline (PBS; pH 7.2). Animals were injected i.p. with 2.12 mg/kg IRAK-Inh 3× weekly.
To determine whether IRAK-Inh can delay human MDS-like disease in vivo, MDSL were pre-treated with IRAK-Inh (10 μM) for 24 hrs in vitro and subsequently injected intravenously (i.v.) into NSG (5×10^6 cells) and NSGS (1×10^6 cells) recipient mice (FIG. 4A). This approach permitted us to evaluate the cell autonomous effect of IRAK-Inh on MDS cell viability and engraftment without altering endogenous IRAK1 function in the mouse.
Moreover, we investigated whether combined IRAK1 and BCL2 inhibition could delay human MDS-like disease in vivo. MDSL cells were treated with IRAK-Inh (10 μM) and/or ABT-263 (0.1 μM) for 48 hrs in vitro and subsequently injected i.v. into NSGS mice (FIG. 4A).

Another series relates to normal CD34+ cells. Kind of series: Colony formation in methylcellulose, normal CD34+ cells. As to conditions: individual or combination treatment.

Molecules are shown by their SMILES.

Description for normal CD34+ cells: The effect of IRAK-Inh on leukemic progenitor function was evaluated in methylcellulose containing IRAK-Inh. […] As an alternative approach, MDS/AML cells were pre-treated with IRAK-Inh for 24 hours and then plated in methylcellulose.

Consider `CC1(C)CCC(c2ccc(Cl)cc2)=C(CN2CCN(c3ccc(C(=O)NS(=O)(=O)c4ccc(N[C@H](CCN5CCOCC5)CSc5ccccc5)c(S(=O)(=O)C(F)(F)F)c4)cc3)CC2)C1` [ABT-263], for which the “sensitivity of HL60 cells” value in series [1] (HL60, alone or combined) is listed as “refractory”. Moreover, in series [1] (alone or co-treatment), the “MDS/AML cell line growth and survival” value is “modest effects”. Also, the median survival in the series with MDSL cells was around 35 days. Besides, the “viability and hematopoietic progenitor function of normal CD34+ cells” value in the series on normal CD34+ cells is “not affected”.
